Holding throughout (type): cell-based
The target of assay [1] is T1, P2X7 (Homo sapiens (Human), UniProt Q99572). Nature of the assay: Ca2+ flux (FLIPR) in 1321N1 cells expressing recombinant human P2X7 channel.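 Further: Calcium-4 dye-loaded cells exposed to compound for 30 min before agonist addition, fluorescence change read 180 s after agonist.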 To be noted: 250 μM BzATP. In general terms: Calcium flux is commonly read through the fluorescence of an indicator in the cells.
In assay [2] the target is T1, P2X7. Nature of the assay: P2X7 antagonism in human PBMCs (LPS + Bz-ATP induced IL-1β release, ELISA).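 On all read-outs here: PBMCs from donor human blood, with a further 1.5 h incubation of the cells in the assay.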 Conditions: LPS 30 ng/ml, Bz-ATP 0.5 mM; for PBMC 10 μM (% control): compound 10 μM; for PBMC 1 μM (% control): compound 1 μM. For orientation: An ELISA detects its analyte on a solid surface through an enzyme-linked reagent.
The target in a further assay is rat P2X7 (Rattus norvegicus (Rat), UniProt Q64663). The assay can be described thus: Ca2+ flux (FLIPR) in 1321N1 cells expressing recombinant rat P2X7 channel.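 Further: Calcium-4 dye fluorescence change read 180 s after agonist addition, following 30 min cell preincubation with test compound.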 To be noted: 250 μM BzATP.
Sequence of rat P2X7 (Q64663 whole entry): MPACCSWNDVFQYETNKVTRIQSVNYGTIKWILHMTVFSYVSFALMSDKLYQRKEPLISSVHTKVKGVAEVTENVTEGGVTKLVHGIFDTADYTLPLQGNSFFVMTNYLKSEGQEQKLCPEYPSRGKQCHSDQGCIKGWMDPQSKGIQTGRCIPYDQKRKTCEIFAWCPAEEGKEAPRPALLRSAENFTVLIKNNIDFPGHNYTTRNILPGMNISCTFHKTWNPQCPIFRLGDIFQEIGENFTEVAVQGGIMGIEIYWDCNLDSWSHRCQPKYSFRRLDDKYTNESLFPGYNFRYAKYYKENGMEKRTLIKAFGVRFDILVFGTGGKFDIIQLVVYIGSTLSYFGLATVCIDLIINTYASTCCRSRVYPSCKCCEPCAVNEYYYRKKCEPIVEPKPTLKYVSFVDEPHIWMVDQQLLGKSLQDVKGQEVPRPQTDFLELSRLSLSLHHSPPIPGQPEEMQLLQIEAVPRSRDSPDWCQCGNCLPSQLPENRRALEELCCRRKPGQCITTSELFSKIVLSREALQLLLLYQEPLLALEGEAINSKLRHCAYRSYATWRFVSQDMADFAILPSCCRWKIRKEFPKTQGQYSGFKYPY

The IC50 is the concentration at which inhibition is half-maximal.

T1 sequence (Q99572 whole entry): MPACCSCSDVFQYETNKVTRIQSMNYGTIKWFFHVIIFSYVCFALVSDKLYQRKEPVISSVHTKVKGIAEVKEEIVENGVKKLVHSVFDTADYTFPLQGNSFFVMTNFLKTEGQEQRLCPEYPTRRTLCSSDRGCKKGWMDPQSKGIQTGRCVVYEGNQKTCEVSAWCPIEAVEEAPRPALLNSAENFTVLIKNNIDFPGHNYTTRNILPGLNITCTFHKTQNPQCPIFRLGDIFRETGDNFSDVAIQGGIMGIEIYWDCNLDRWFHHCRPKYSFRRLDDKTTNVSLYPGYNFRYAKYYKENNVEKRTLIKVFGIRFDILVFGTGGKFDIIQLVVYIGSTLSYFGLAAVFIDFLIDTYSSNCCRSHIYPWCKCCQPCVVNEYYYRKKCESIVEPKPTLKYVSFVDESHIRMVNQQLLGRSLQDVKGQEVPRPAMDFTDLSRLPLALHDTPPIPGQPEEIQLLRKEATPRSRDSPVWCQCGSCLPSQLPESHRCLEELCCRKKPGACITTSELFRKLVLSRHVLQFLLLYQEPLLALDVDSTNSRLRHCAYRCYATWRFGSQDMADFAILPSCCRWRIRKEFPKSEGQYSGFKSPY

For `CC1C=CN=C(n2nnc3c2CCN(C(=O)c2cccc(C(F)(F)F)c2Cl)[C@@H]3C)N1` (single isomer, unassigned) [Example 234, (4R*)-(2-Chloro-3-(trifluoromethyl)phenyl)((4R)-4-methyl-1-(6-methyl-1,6-dihydropyrimidin-2-yl)-6,7-dihydro-1H-[1,2,3]triazolo[4,5-c]pyridin-5(4H)-yl)methanone], the IC50 at P2X7 [1] was 0.2 µM; on rat P2X7, 2 µM. In addition, the “PBMC 10 μM (% control)” value at P2X7 [2] is −40.9 % control.
Consider `CC(C)C1c2ncn(-c3cnccn3)c2CCN1C(=O)c1cccc(C(F)(F)F)c1Cl` (stereo not drawn) [Example 16, (2-Chloro-3-(trifluoromethyl)phenyl)(4-isopropyl-1-(pyrazin-2-yl)-6,7-dihydro-1H-imidazo[4,5-c]pyridin-5(4H)-yl)methanone], for which the IC50 worked out at 0.104 µM at P2X7 [1] and 0.456 µM at rat P2X7. The “PBMC 1 μM (% control)” value on P2X7 [2] came out at 8.5 % control.
For `Cn1nc2c(c1-c1ccncc1)CCN(C(=O)c1cccc(C(F)(F)F)c1Cl)C2` [Example 327, (2-chloro-3-(trifluoromethyl)phenyl)(2-methyl-3-(pyridin-4-yl)-4,5-dihydro-2H-pyrazolo[3,4-c]pyridin-6(7H)-yl)methanone], in that order: more than 10 µM, more than 10 µM and 93.1 % control.
In the case of `Cc1nc2c(n1-c1ccccc1)CCN(C(=O)c1cccc(C(F)(F)F)c1Cl)C2` [Example 37, (2-Chloro-3-(trifluoromethyl)phenyl)(2-methyl-1-phenyl-6,7-dihydro-1H-imidazo[4,5-c]pyridin-5(4H)-yl)methanone], the IC50 at P2X7 [1] is 0.0993 µM; on rat P2X7, 1.53 µM. Moreover, at P2X7 [2], the “PBMC 10 μM (% control)” value is given as −9.1 % control.
For `Cc1cncc(-n2nnc3c2CCN(C(=O)c2cccc(Cl)c2Cl)C3C)n1` (stereo not drawn) [Example 180, (2,3-dichlorophenyl)(4-methyl-1-(6-methylpyrazin-2-yl)-6,7-dihydro-1H-[1,2,3]triazolo[4,5-c]pyridin-5(4H)-yl)methanone] the same measures were 0.592 µM, more than 10 µM and −3.7 % control.
For `CC1c2ncn(-c3ccc(F)cn3)c2CCN1C(=O)c1ccccc1F` (stereo not drawn) [Example 264, (2-fluorophenyl)(1-(5-fluoropyridin-2-yl)-4-methyl-6,7-dihydro-1H-imidazo[4,5-c]pyridin-5(4H)-yl)methanone], in that order: more than 10 µM, more than 10 µM and 89.5 % control.
For `O=C(c1ccc(Cl)cc1F)N1CCc2c(nnn2-c2ccccn2)C1` [Example 129, (4-Chloro-2-fluorophenyl)(1-(pyridin-2-yl)-6,7-dihydro-1H-[1,2,3]triazolo[4,5-c]pyridin-5(4H)-yl)methanone] the same measures were 0.366 µM, 3.35 µM and 8.4 % control.
In the case of `Cn1nccc1-n1nnc2c1CCN(C(=O)c1cccc(C(F)(F)F)c1Cl)C2` [Example 128, (2-Chloro-3-(trifluoromethyl)phenyl)(1-(1-methyl-1H-pyrazol-5-yl)-6,7-dihydro-1H-[1,2,3]triazolo[4,5-c]pyridin-5(4H)-yl)methanone], the IC50 is 2.11 µM on P2X7 [1] and more than 10 µM on rat P2X7. For the same molecule, the “PBMC 10 μM (% control)” value at P2X7 [2] amounted to 23.1 % control.
In the case of `CCOC(=O)C1c2ncn(-c3cnccn3)c2CCN1C(=O)c1cccc(C(F)(F)F)c1Cl` (stereo not drawn) [Example 28, Ethyl 5-{[2-chloro-3-(trifluoromethyl)phenyl]carbonyl}-1-pyrazin-2-yl-4,5,6,7-tetrahydro-1H-imidazo[4,5-c]pyridine-4-carboxylate], the IC50 at P2X7 [1] is 0.0138 µM; at rat P2X7, 0.0165 µM. For the same molecule, on P2X7 [2], the “PBMC 1 μM (% control)” value came out at 4.8 % control.
In the case of `Cc1cnc(-n2nnc3c2CCN(C(=O)c2cccc(C(F)(F)F)c2Cl)C3C)c(C)c1` (stereo not drawn) [Example 159, (2-chloro-3-(trifluoromethyl)phenyl)(1-(3,5-dimethylpyridin-2-yl)-4-methyl-6,7-dihydro-1H-[1,2,3]triazolo[4,5-c]pyridin-5(4H)-yl)methanone], the IC50 on P2X7 [1] and at rat P2X7 was more than 10 µM throughout. The “PBMC 10 μM (% control)” value on P2X7 [2] came out at 54.1 % control.
As for `COc1ccccc1-n1nnc2c1CCN(C(=O)c1cccc(C(F)(F)F)c1Cl)C2` [Example 125, (2-Chloro-3-(trifluoromethyl)phenyl)(1-(2-methoxyphenyl)-6,7-dihydro-1H-[1,2,3]triazolo[4,5-c]pyridin-5(4H)-yl)methanone], the IC50 on P2X7 [1] was determined as 0.159 µM; at rat P2X7 it was 1.26 µM. The “PBMC 1 μM (% control)” value on P2X7 [2] is 83.4 % control.
`CC1c2[nH]nc(C(F)(F)F)c2CCN1C(=O)c1cccc(C(F)(F)F)c1Cl` (stereo not drawn) [Example 308, (2-chloro-3-(trifluoromethyl)phenyl)(7-methyl-3-(trifluoromethyl)-4,5-dihydro-1H-pyrazolo[3,4-c]pyridin-6(7H)-yl)methanone]: the IC50 on P2X7 [1] and at rat P2X7 was more than 10 µM throughout. Further, the “PBMC 10 μM (% control)” value at P2X7 [2] was determined as 22.9 % control.
Regarding `Cn1nc2c(c1-c1ccncc1)CCN(C(=O)c1cccc(Cl)c1Cl)C2` [Example 328, (2,3-dichlorophenyl)(2-methyl-3-(pyridin-4-yl)-4,5-dihydro-2H-pyrazolo[3,4-c]pyridin-6(7H)-yl)methanone], the IC50 on P2X7 [1] and on rat P2X7 was more than 10 µM each time. The “PBMC 1 μM (% control)” value at P2X7 [2] stood at 88.0 % control.
Take `O=C(c1cccc(C(F)(F)F)c1F)N1CCc2c(ncn2-c2ccc(F)cn2)C1` [Example 314, (2-fluoro-3-(trifluoromethyl)phenyl)(1-(5-fluoropyridin-2-yl)-6,7-dihydro-1H-imidazo[4,5-c]pyridin-5(4H)-yl)methanone]: the values for the IC50 on P2X7 [1] and on rat P2X7 were 2.83 µM and more than 10 µM, respectively. Besides, on P2X7 [2], the “PBMC 10 μM (% control)” value is recorded as 18.7 % control.
Turning to `Cn1nc2c(c1-c1cncnc1)CCN(C(=O)c1cccc(Cl)c1Cl)C2` [Example 329, (2,3-dichlorophenyl)(2-methyl-3-(pyrimidin-5-yl)-4,5-dihydro-2H-pyrazolo[3,4-c]pyridin-6(7H)-yl)methanone], the IC50 at P2X7 [1] and on rat P2X7 was more than 10 µM in each case. For the same molecule, the “PBMC 1 μM (% control)” value on P2X7 [2] is 99.5 % control.
In the case of `CC1c2ncn(-c3ccc(F)cn3)c2CCN1C(=O)c1ccc(F)cc1Cl` (stereo not drawn) [Example 256, (2-chloro-4-fluorophenyl)(1-(5-fluoropyridin-2-yl)-4-methyl-6,7-dihydro-1H-imidazo[4,5-c]pyridin-5(4H)-yl)methanone], the IC50 at P2X7 [1] is 2.39 µM; on rat P2X7, more than 10 µM. For the same molecule, the “PBMC 10 μM (% control)” value on P2X7 [2] was determined as 7.1 % control.
For `CC1c2nnn(-c3cncnc3)c2CCN1C(=O)c1cccc(C(F)(F)F)c1Cl` (stereo not drawn) [Example 177, (2-Chloro-3-(trifluoromethyl)phenyl)(4-methyl-1-(pyrimidin-5-yl)-6,7-dihydro-1H-[1,2,3]triazolo[4,5-c]pyridin-5(4H)-yl)methanone] the same measures were 0.227 µM, more than 10 µM and 8.6 % control.
